From US8598154B2 (Corcept Therapeutics, Inc., priority 2010, dated 2013)

Legend:
[1] = biological target: T1, Human Recombinant Glucocorticoid Receptor (Homo sapiens, UniProt P04150); experiment: Glucocorticoid receptor binding displacement assay with 3H-dexamethasone; conditions: displacement of 2.5 nM 3H-dexamethasone; Ki from IC50 by Cheng-Prusoff; read-out: GR Binding Ki
T1 construct: This GR was a full-length steroid hormone receptor likely to be associated with heat-shock and other endogenous proteins; host or cells: baculovirus-infected insect cells
T1 sequence (P04150 1-777): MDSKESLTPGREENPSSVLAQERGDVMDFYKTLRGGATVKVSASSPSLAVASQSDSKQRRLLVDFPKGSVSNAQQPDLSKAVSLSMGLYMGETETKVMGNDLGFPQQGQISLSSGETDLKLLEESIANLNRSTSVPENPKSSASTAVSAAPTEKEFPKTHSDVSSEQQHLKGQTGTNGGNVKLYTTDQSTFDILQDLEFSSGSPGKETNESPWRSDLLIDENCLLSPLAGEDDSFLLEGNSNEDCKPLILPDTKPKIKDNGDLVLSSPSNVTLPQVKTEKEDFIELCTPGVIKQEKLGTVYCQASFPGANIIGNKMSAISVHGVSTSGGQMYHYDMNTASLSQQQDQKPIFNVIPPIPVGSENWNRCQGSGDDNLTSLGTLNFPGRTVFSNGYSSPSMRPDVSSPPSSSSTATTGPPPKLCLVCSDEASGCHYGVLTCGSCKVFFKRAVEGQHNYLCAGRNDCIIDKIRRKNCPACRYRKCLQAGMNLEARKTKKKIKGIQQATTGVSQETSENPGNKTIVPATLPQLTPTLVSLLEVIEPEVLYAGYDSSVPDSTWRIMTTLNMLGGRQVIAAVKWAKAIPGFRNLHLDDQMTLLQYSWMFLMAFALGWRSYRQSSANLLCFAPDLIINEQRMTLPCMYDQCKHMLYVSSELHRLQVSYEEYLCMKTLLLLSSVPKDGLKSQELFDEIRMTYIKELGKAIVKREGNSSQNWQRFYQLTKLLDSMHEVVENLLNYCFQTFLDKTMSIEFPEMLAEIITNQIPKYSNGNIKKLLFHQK
Method: The source of the receptor was recombinant baculovirus-infected insect cells. This GR was a full-length steroid hormone receptor likely to be associated with heat-shock and other endogenous proteins.
For the Primary Screen, test compounds were tested at 1 μM in duplicate. These compounds were diluted from 10 mM stock in 100% DMSO. After dilution to 100 μM, 5 μl were added to 245 μl assay buffer to obtained 2 μM compound and 2% DMSO.
For the IC50 determinations, test compounds were tested at 6 concentrations in duplicate (concentration range depends on % inhibition binding that was obtained in the Primary Screen). Test compounds were diluted from 10 mM stock in 100% DMSO. The tested solutions were prepared at 2× final assay concentration in 2% DMSO/assay buffer.
All reagents and the assay plate were kept on ice during the addition of reagents. […] After the additions, the incubation mixture was mixed and incubated for 2.5 hrs at 4° C.
After 2.5 hrs incubation, unbound counts were removed with dextran coated charcoal (DCC) as follows: 25 μl of DCC solution (10% DCC in assay buffer) was added to all wells and mixed (total volume 225 μl). The plate was centrifuged at 4000 rpm for 10 minutes at 4° C. 75 μl of the supernatants (i.e.⅓ of total volume) was carefully pipetted into an optiplate. 200 μl of scintillation cocktail were added (Microscint-40, Packard Bioscience. B.V.). The plate was vigorously shaken for approx. 10 minutes and counted on Topcount.
The IC50 values were converted to Ki (the inhibition constant) using the Cheng-Prusoff equation. Test results are presented in Tablel.
Reagents: Assay buffer: 10 mM potassium phosphate buffer pH 7.6 containing 5 mM DTT, 10 mM sodium molybdate, 100 μM EDTA and 0.1% BSA.

[2] = biological target: T2, glucocorticoid receptors (GR) in SW1353/MMTV-5 cells (Homo sapiens, UniProt P04150); experiment: GR functional assay using SW1353/MMTV-5 cells (MMTV-luciferase reporter); format: cell-based
T2 construct: contains endogenous glucocorticoid receptors; endogenous in cells; host or cells: SW1353/MMTV-5 (human chondrosarcoma, stably transfected with the pMAMneo-Luc reporter only)
T2 sequence (P04150 1-777): T1 sequence (P04150 1-777)
Method: SW1353/MMTV-5 is an adherent human chondrosarcoma cell line that contains endogenous glucocorticoid receptors. It was transfected with a plasmid (pMAMneo-Luc) encoding firefly luciferase located behind a glucocorticoid-responsive element (GRE) derived from a viral promoter (long terminal repeat of mouse mammary tumor virus). A stable cell line SW1353/MMTV-5 was selected with geneticin, which was required to maintain this plasmid.
SW1353/MMTV-5 cells were distributed in 96-well plates and incubated in medium (without geneticin) for 24 hrs (in the absence of CO2).

Structure (SMILES) | Ki [1] | Ki [2]
COC[C@]12Cc3cnn(-c4ccc(F)cc4)c3C=C1CCN(S(=O)(=O)c1ccc(N3CCNCC3)nc1)C2 [Example 18, (R)-1-(4-Fluorophenyl)-4a-methoxymethyl-6-[[6-(1-piperazinyl)-3-pyridinyl]sulfonyl]-1,4,7,8-tetrahydro-1,2,6-triazacyclopenta[b]naphthalene] | > 1 nM | > 50 nM
COC[C@]12Cc3cnn(-c4ccc(F)cc4)c3C=C1CCN(S(=O)(=O)c1ccc(N3CCN(C)CC3)nc1)C2 [Example 19, (R)-1-(4-Fluorophenyl)-4a-methoxymethyl-6-[[6-(1-(4-methylpiperazinyl))-3-pyridinyl]sulfonyl]-1,4,7,8-tetrahydro-1,2,6-triazacyclopenta[b]naphthalene] | > 1 nM | > 50 nM
COC[C@]12Cc3cnn(-c4ccc(F)cc4)c3C=C1CCN(S(=O)(=O)c1ccc(N3CC[C@@H](F)C3)nc1)C2 [Example 20, (R)-1-(4-Fluorophenyl)-6-[6-((R)-3-fluoropyrrolidin-1-yl)-pyridine-3-sulfonyl]-4a-methoxymethyl-4,4a,5,6,7,8-hexahydro-1H-1,2,6-triaza-cyclopenta[b]naphthalene] | > 1 nM | 10 to 50 nM
COC[C@]12Cc3cnn(-c4ccc(F)cc4)c3C=C1CCN(S(=O)(=O)c1ccc(N3CC[C@@H](O)C3)nc1)C2 [Example 21, (R)-1-{5-[(R)-1-(4-Fluorophenyl)-4a-methoxymethyl-1,4,4a,5,6,7,8-hexahydro-1,2,6-triaza-cyclopenta[b]naphthalene-6-sulfonyl]-pyridin-2-yl}-pyrrolidin-3-ol] | > 1 nM | > 50 nM
COC[C@]12Cc3cnn(-c4ccc(F)cc4)c3C=C1CCN(S(=O)(=O)c1ccc(N3CC[C@H](O)C3)nc1)C2 [Example 22, (S)-1-{5-[(R)-1-(4-Fluorophenyl)-4a-methoxymethyl-1,4,4a,5,6,7,8-hexahydro-1,2,6-triaza-cyclopenta[b]naphthalene-6-sulfonyl]-pyridin-2-yl}-pyrrolidin-3-ol] | > 1 nM | > 50 nM
COC[C@]12Cc3cnn(-c4ccc(F)cc4)c3C=C1CCN(S(=O)(=O)c1ccc(N3C[C@@H]4C[C@H]3CO4)nc1)C2 [Example 23, (R)-1-(4-Fluorophenyl)-4a-methoxymethyl-6-[(1S,4S)-6-(2-oxa-5-aza-bicyclo[2.2.1]hept-5-yl)pyridine-3-sulfonyl]-4,4a,5,6,7,8-hexahydro-1H-1,2,6-triaza-cyclopenta[b]naphthalene] | > 1 nM | > 50 nM
COC[C@]12Cc3cnn(-c4ccc(F)cc4)c3C=C1CCN(S(=O)(=O)c1ccc(C(F)(F)F)nc1)C2 [Example 24, (R)-1-(4-Fluorophenyl)-4a-methoxymethyl-6-(6-trifluoromethylpyridine-3-sulfonyl)-4,4a,5,6,7,8-hexahydro-1H-1,2,6-triaza-cyclopenta[b]naphthalene] | > 1 nM | 10 to 50 nM
O=S(=O)(c1ccc(N2CCCC2)nc1)N1CCC2=Cc3c(cnn3-c3ccc(F)cc3)C[C@]2(COCC2CC2)C1 [Example 25, (R)-4a-Cyclopropylmethoxymethyl-1-(4-fluorophenyl)-6-(6-pyrrolidin-1-yl-pyridine-3-sulfonyl)-4,4a,5,6,7,8-hexahydro-1H-1,2,6-triaza-cyclopenta[b]naphthalene] | 0.5 to 1 nM | < 10 nM
O=S(=O)(c1ccc(N2CC[C@@H](F)C2)nc1)N1CCC2=Cc3c(cnn3-c3ccc(F)cc3)C[C@]2(COCC2CC2)C1 [Example 26, (R)-4a-Cyclopropylmethoxymethyl-1-(4-fluorophenyl)-6-(6-((R)-3-fluoro-pyrrolidin-1-yl)-pyridine-3-sulfonyl)-4,4a,5,6,7,8-hexahydro-1H-1,2,6-triaza-cyclopenta[b]naphthalene] | 0.5 to 1 nM | < 10 nM
O=S(=O)(c1ccc(N2CC[C@H](F)C2)nc1)N1CCC2=Cc3c(cnn3-c3ccc(F)cc3)C[C@]2(COCC2CC2)C1 [Example 27, (R)-4a-Cyclopropylmethoxymethyl-1-(4-fluorophenyl)-6-(6-((S)-3-fluoropyrrolidin-1-yl)-pyridine-3-sulfonyl)-4,4a,5,6,7,8-hexahydro-1H-1,2,6-triaza-cyclopenta[b]naphthalene] | 0.5 to 1 nM | < 10 nM
O=S(=O)(c1ccc(N2CC[C@@H](O)C2)nc1)N1CCC2=Cc3c(cnn3-c3ccc(F)cc3)C[C@]2(COCC2CC2)C1 [Example 28, (R)-1-{5-[(R)-4a-Cyclopropylmethoxymethyl-1-(4-fluorophenyl)-1,4,4a,5,6,7,8-hexahydro-1,2,6-triaza-cyclopenta[b]naphthalene-6-sulfonyl]pyridine-2-yl}-pyrrolidine-3-ol] | < 0.5 nM | 10 to 50 nM
O=S(=O)(c1ccc(N2CC[C@H](O)C2)nc1)N1CCC2=Cc3c(cnn3-c3ccc(F)cc3)C[C@]2(COCC2CC2)C1 [Example 29, (S)-1-{5-[(R)-4a-Cyclopropylmethoxymethyl-1-(4-fluorophenyl)-1,4,4a,5,6,7,8-hexahydro-1,2,6-triaza-cyclopenta[b]naphthalene-6-sulfonyl]pyridine-2-yl}-pyrrolidine-3-ol] | 0.5 to 1 nM | 10 to 50 nM
O=S(=O)(c1ccc(N2CC(F)C2)nc1)N1CCC2=Cc3c(cnn3-c3ccc(F)cc3)C[C@]2(COCC2CC2)C1 [Example 30, (R)-4a-Cyclopropylmethoxymethyl-6-[6-(3-fluoroazetin-1-yl)-pyridine-3-sulfonyl]-1-(4-fluorophenyl)-1,4,4a,5,6,7,8-hexahydro-1H-1,2,6-triaza-cyclopenta[b]naphthalene] | < 0.5 nM | < 10 nM
O=S(=O)(c1ccc(N2CC(O)C2)nc1)N1CCC2=Cc3c(cnn3-c3ccc(F)cc3)C[C@]2(COCC2CC2)C1 [Example 31, 1-{5-[(R)-4a-Cyclopropylmethoxymethyl-1-(4-fluorophenyl)-1,4,4a,5,6,7,8-hexahydro-1,2,6-triaza-cyclopenta[b]naphthalene-6-sulfonyl]-pyridin-2-yl}-azetidin-3-ol] | 0.5 to 1 nM | 10 to 50 nM
O=S(=O)(c1ccc(N2CCOCC2)nc1)N1CCC2=Cc3c(cnn3-c3ccc(F)cc3)C[C@]2(COCC2CC2)C1 [Example 32, (R)-4a-Cyclopropylmethoxymethyl-1-(4-fluorophenyl)-6-(6-morpholin-4-yl-pyridine-3-sulfonyl)-4,4a,5,6,7,8-hexahydro-1H-1,2,6-triaza-cyclopenta[b]naphthalene] | 0.5 to 1 nM | < 10 nM
COCCOC[C@]12Cc3cnn(-c4ccc(F)cc4)c3C=C1CCN(S(=O)(=O)c1ccc(N3CC[C@@H](F)C3)nc1)C2 [Example 33, (R)-1-(4-Fluorophenyl)-6-[6-((R)-3-fluoropyrrolidin-1-yl)-pyridine-3-sulfonyl]-4a-(2-methoxyethoxymethyl)-4,4a,5,6,7,8-hexahydro-1H-1,2,6-triaza-cyclopenta[b]naphthalene] | 0.5 to 1 nM | < 10 nM
O=S(=O)(c1ccc(N2CC[C@@H](F)C2)nc1)N1CCC2=Cc3c(cnn3-c3ccc(F)cc3)C[C@]2(COCCO)C1 [Example 34, 2-{(R)-1-(4-Fluorophenyl)-6-[6-((R)-3-fluoropyrrolidin-1-yl)-pyridine-3-sulphonyl]-1,4,5,6,7,8-hexahydro-1,2,6-triaza-cyclopenta[b]naphthalene-4a-ylmethoxy}-ethanol] | > 1 nM | > 50 nM
